Source: patent EP4603105A1, “PHARMACEUTICAL COMPOSITION CONTAINING CYCLIC COMPOUND HAVING SELECTIVE KRAS INHIBITORY EFFECT AGAINST HRAS AND NRAS” (CHUGAI SEIYAKU KABUSHIKI KAISHA, priority 2022, dated 2024)
*1 amine or outer side, *2 acyl side, *3 side chain or, on linkers, in order; H or OH if unused. Where a SMILES comes first, the peptide text is derived from it. Bridges are numbered along the chain shown (N, C = ends). [ ]: non-standard residue; d: D form. The star is where a group is joined. hPhe(3-Cl-4-CF3) = N[C@@H](CCc1ccc(C(F)(F)F)c(Cl)c1)C(=O)O; X24 = CC(C)CN([C@@H](Cc1ccc(C(F)(F)F)cc1)C(=O)[*:2])[*:1]; NPrPhe(4-CF3) = CCCN[C@@H](Cc1ccc(C(F)(F)F)cc1)C(=O)O; NEtPhe(4-Me) = CCN[C@@H](Cc1ccc(C)cc1)C(=O)O; Morpholine(3S-CO) = O=C(O)[C@@H]1COCCN1; NMeGly(cPent) = CN[C@H](C(=O)O)C1CCCC1; NMeD = CN[C@@H](CC(=O)O)C(=O)O; NMeL = CN[C@@H](CC(C)C)C(=O)O; Morpholide = C1CN(*)CCO1; NMeA = CN[C@@H](C)C(=O)O; NMeAib = CNC(C)(C)C(=O)O; Nle = CCCC[C@H](N)C(=O)O; Piperidide = C1CCN(*)CC1; Ac5c = NC1(C(=O)O)CCCC1; Aze = O=C(O)[C@@H]1CCN1; Sar = CNCC(=O)O

What was measured:
[1] = target: HRAS wild-type protein (Homo sapiens, UniProt P01112); assay: Binding to HRAS by surface plasmon resonance (SPR), KD and KD ratio to KRAS
Chain of HRAS wild-type protein (P01112 whole entry): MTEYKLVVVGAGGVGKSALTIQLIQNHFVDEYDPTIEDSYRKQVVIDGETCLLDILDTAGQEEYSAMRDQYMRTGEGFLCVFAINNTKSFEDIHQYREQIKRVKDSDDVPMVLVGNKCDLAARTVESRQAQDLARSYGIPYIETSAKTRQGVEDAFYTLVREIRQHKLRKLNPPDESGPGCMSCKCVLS
Method in brief: (§1)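 Recombinant RAS proteins bearing a biotinylated Avi tag and loaded with GDP served as the captured ligand, recaptured fresh every cycle. Binding responses were referenced to an uncoated surface and a buffer-only blank cycle. Dissociation constants were obtained by 1:1 model fitting at 30°C.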

[2] = test system: human lung cancer strain NCI-H441; format: cell-based
Method in brief: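 Signal came from […] measured per well once the reagent was added. Beforehand, cells were cultured at 37°C and 5% carbon dioxide on a compound series serially diluted in dimethyl sulfoxide.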

[3] = target: GDP-bound NRAS wild-type protein (Homo sapiens, UniProt P01111); assay: Binding to NRAS by surface plasmon resonance (SPR), KD and KD ratio to KRAS
Chain of GDP-bound NRAS wild-type protein (P01111 whole entry): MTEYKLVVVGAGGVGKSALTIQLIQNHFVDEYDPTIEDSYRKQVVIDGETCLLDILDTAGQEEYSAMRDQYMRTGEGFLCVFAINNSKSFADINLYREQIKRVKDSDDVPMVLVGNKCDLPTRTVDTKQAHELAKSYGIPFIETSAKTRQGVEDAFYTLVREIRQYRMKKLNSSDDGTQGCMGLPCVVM
Method in brief: as §1

[4] = ratio of KD for HRAS wild-type protein to KD for KRAS
[5] = ratio of KD for GDP-bound NRAS wild-type protein to KD for KRAS
[6] = ratio of the KD value with respect to HRAS wild-type protein to the KD value with respect to KRAS
[7] = ratio of the KD value with respect to GDP-bound NRAS wild-type protein to the KD value with respect to KRAS
[8] = ratio of KD value for HRAS wild-type protein to KD value for KRAS (SPR)
[9] = ratio of KD value for GDP-bound NRAS wild-type protein to KD value for KRAS (SPR)

IC50 [2] | Structure (SMILES) | HRAS /KRAS [1, 4] | NRAS /KRAS [3, 5] | further results
188 nM | CCC[C@H]1C(=O)N[C@@H]([C@@H](C)CC)C(=O)N(C2CC2)CC(=O)N(C)[C@H]2C/C=C\CCN(C2=O)[C@@H](Cc2ccc(C(F)(F)F)cc2)C(=O)N(C)CC(=O)N[C@@H](CCc2ccc(C(F)(F)F)c(OC)c2)C(=O)N2C[C@H](OCC)C[C@H]2C(=O)NC2(CC(C)(C)C2)C(=O)N(C)[C@@H](CC2CC2)C(=O)N(C)[C@H](C(=O)N(C)C)CC(=O)N1C [PP2815] | A (a compound having 10 or more and less than 20 is denoted as A) | A (a compound having 10 or more and less than 20 is denoted as A) | 
13.9 nM | CCO[C@@H]1C[C@H]2C(=O)NC3(CCC3)C(=O)N(C)[C@@H](C3CCCC3)C(=O)N(C)[C@H](C(=O)N(C)CCOC)CC(=O)N(C)[C@@H](CC)C(=O)N[C@@H]([C@@H](C)CC)C(=O)N(C)CC(=O)N(C)[C@H]3C/C=C\CCN(C3=O)[C@@H](Cc3ccc(C(F)(F)F)cc3)C(=O)N(C)CC(=O)N[C@@H](CCc3ccc(C(F)(F)F)c(OC)c3)C(=O)N2C1 [PP1321] |  |  | HRAS /KRAS ([1]; ratio of KD with respect to HRAS wild-type protein to KD with respect to KRAS): B (a compound having 3 or more and less than 10 is denoted as B); NRAS /KRAS ([3]; ratio of KD with respect to GDP-bound NRAS wild-type protein to KD with respect to KRAS): A (a compound having 10 or more and less than 20 is denoted as A)
70.8 nM | CC[C@H](C)[C@@H]1NC(=O)[C@H](CC(C)C)N(C)C(=O)C[C@@H](C(=O)N2CCOCC2)N(C)C(=O)[C@H](C2CCCC2)N(C)C(=O)C2(CCC2)NC(=O)[C@@H]2C[C@@H](O)CN2C(=O)[C@H](CCc2cc(F)c(C(F)(F)F)c(F)c2)NC(=O)CN(C)C(=O)[C@H](Cc2ccc(C(F)(F)F)cc2)N2CCCC[C@@H](C2=O)N(C)C(=O)CN(C)C1=O [PP0868] | B (a compound having 3 or more and less than 10 is denoted as B) | C (A compound having a KD ratio of 0.1 or more and less than 3 is denoted as C) | 
7.6 nM | CCO[C@@H]1C[C@H]2C(=O)NC3(CCC3)C(=O)N(C)[C@@H](C3CCCC3)C(=O)N(C)[C@H](C(=O)N(C)CC)CC(=O)N(C)[C@@H](CC3CCC3)C(=O)N[C@@H]([C@@H](C)CC)C(=O)N(C)CC(=O)N(C)[C@H]3C/C=C\CCN(C3=O)[C@@H](Cc3ccc(C(F)(F)F)cc3)C(=O)N(C)CC(=O)N[C@@H](CCc3ccc(C(F)(F)F)c(OC)c3)C(=O)N2C1 [PP2825] | B (a compound having 3 or more and less than 10 is denoted as B) | A (a compound having 10 or more and less than 20 is denoted as A) | 
12.5 nM | CCO[C@@H]1C[C@H]2C(=O)NC3(CC(C)(C)C3)C(=O)N(C)[C@@H](C3CCCC3)C(=O)N(C)[C@H](C(=O)N(C)C)CC(=O)N(C)[C@@H](C(C)C)C(=O)N[C@@H]([C@@H](C)CC)C(=O)N(C)CC(=O)N(C)[C@H]3C/C=C\CCN(C3=O)[C@@H](Cc3ccc(C(F)(F)F)cc3)C(=O)N(C)CC(=O)N[C@@H](CCc3ccc(C(F)(F)F)c(OC)c3)C(=O)N2C1 [PP1979] |  |  | HRAS /KRAS [1, 6]: A (a compound having 10 or more and less than 20 is denoted as A); NRAS /KRAS [3, 7]: AA (a compound having 20 or more is denoted as AA)
86 nM | CCC[C@H]1C(=O)N[C@@H]([C@@H](C)CC)C(=O)N(C2CC2)CC(=O)N(C)[C@H]2C/C=C\CCN(C2=O)[C@@H](Cc2ccc(C(F)(F)F)cc2)C(=O)N(C)CC(=O)N[C@@H](CCc2cc(F)c(C(F)(F)F)c(F)c2)C(=O)N2C[C@H](OCC)C[C@H]2C(=O)NC2(CC(C)(C)C2)C(=O)N(C)[C@@H](CC2CC2)C(=O)N(C)[C@H](C(=O)N(C)C)CC(=O)N1C [PP2813] | A (a compound having 10 or more and less than 20 is denoted as A) | AA (a compound having 20 or more is denoted as AA) | 
2.1 nM | CCO[C@@H]1C[C@H]2C(=O)NC3(CC(C)(C)C3)C(=O)N(C)[C@@H](C3CCCC3)C(=O)N(C)[C@H](C(=O)N(C)CC)CC(=O)N(C)[C@@H](CC3CC3)C(=O)N[C@@H]([C@@H](C)CC)C(=O)N(C)CC(=O)N(C)[C@H]3C/C=C\CCN(C3=O)[C@@H](Cc3ccc(C(F)(F)F)cc3)C(=O)N(C)CC(=O)N[C@@H](CCc3cc(F)c(C(F)(F)F)c(F)c3)C(=O)N2C1 [PP1648] |  |  | HRAS /KRAS [1, 8]: A (a compound having 10 or more and less than 20 is denoted as A); NRAS /KRAS [3, 9]: A (a compound having 10 or more and less than 20 is denoted as A)
40.3 nM | CCO[C@@H]1C[C@H]2C(=O)NC3(CC(C)(C)C3)C(=O)N(C)[C@@H](C(CC)CC)C(=O)N(C)[C@H](C(=O)N(C)C)CC(=O)N(C)[C@@H](C(C)C)C(=O)N[C@@H]([C@@H](C)CC)C(=O)N(C)CC(=O)N(C)[C@H]3C/C=C\CCN(C3=O)[C@@H](Cc3ccc(C(F)(F)F)cc3)C(=O)N(C)CC(=O)N[C@@H](CCc3ccc(Cl)c(Cl)c3)C(=O)N2C1 [PP2181] |  |  | HRAS /KRAS [1, 6]: A (a compound having 10 or more and less than 20 is denoted as A); NRAS /KRAS [3, 7]: AA (a compound having 20 or more is denoted as AA)
2.5 nM | CCCOC[C@H]1C(=O)N[C@@H]([C@@H](C)CC)C(=O)N(C)CC(=O)N(C)[C@H]2C/C=C\CCN(C2=O)[C@@H](Cc2ccc(C(F)(F)F)cc2)C(=O)N(C)CC(=O)N[C@@H](CCc2cc(F)c(C(F)(F)F)c(F)c2)C(=O)N2CC(F)(F)C[C@H]2C(=O)NC2(CC(C)(C)C2)C(=O)N(C)[C@@H](C2CCCC2)C(=O)N(C)[C@H](C(=O)N(C)C)CC(=O)N1C [PP1718] |  |  | HRAS /KRAS [1, 8]: A (a compound having 10 or more and less than 20 is denoted as A); NRAS /KRAS [3, 9]: AA (a compound having 20 or more is denoted as AA)
292 nM | CC[C@H](C)[C@@H]1NC(=O)[C@H](CC(C)C)N(C)C(=O)C[C@@H](C(=O)N2CCOCC2)N(C)C(=O)[C@H](CC(C)C)N(C)C(=O)C2(CCCC2)NC(=O)[C@@H]2CCCN2C(=O)[C@H](CCc2ccc(C(F)(F)F)c(Cl)c2)NC(=O)CN(C)C(=O)[C@H](Cc2ccc(C)cc2)N(CC)C(=O)CN(C)C(=O)CN(C)C1=O [PP0045] ([NMeL]I[Sar][Sar][NEtPhe(4-Me)][Sar][hPhe(3-Cl-4-CF3)]P[Ac5c][NMeL][NMeD]-Morpholide; lactam N-11) | C (A compound having a KD ratio of 0.1 or more and less than 3 is denoted as C) | C (A compound having a KD ratio of 0.1 or more and less than 3 is denoted as C) | 
19.6 nM | CCO[C@@H]1C[C@H]2C(=O)NC3(CC(C)(C)C3)C(=O)N(C)[C@@H](C(CC)CC)C(=O)N(C)[C@H](C(=O)N3CCCC3)CC(=O)N(C)[C@@H](CC)C(=O)N[C@@H]([C@@H](C)CC)C(=O)N(C)CC(=O)N(C)[C@H]3C/C=C\CCN(C3=O)[C@@H](Cc3ccc(C)cc3)C(=O)N(C)CC(=O)N[C@@H](CCc3ccc(C(F)(F)F)c(OC)c3)C(=O)N2C1 [PP2171] |  |  | HRAS /KRAS [1, 6]: A (a compound having 10 or more and less than 20 is denoted as A); NRAS /KRAS [3, 7]: A (a compound having 10 or more and less than 20 is denoted as A)
35 nM | CCCN1C(=O)[C@@H]2CCN2C(=O)[C@H](C)N(C)C(=O)[C@H]([C@@H](C)CC)NC(=O)[C@H](CC(C)C)N(C)C(=O)C[C@@H](C(=O)N2CCOCC2)N(C)C(=O)[C@H](C2CCCC2)N(C)C(=O)C2(CCCC2)NC(=O)[C@@H]2COCCN2C(=O)[C@H](CCc2ccc(C(F)(F)F)c(Cl)c2)NC(=O)CN(C)C(=O)[C@@H]1Cc1ccc(C(F)(F)F)cc1 [PP0286] ([NMeL]I[NMeA][Aze][NPrPhe(4-CF3)][Sar][hPhe(3-Cl-4-CF3)][Morpholine(3S-CO)][Ac5c][NMeGly(cPent)][NMeD]-Morpholide; lactam N-11) | B (a compound having 3 or more and less than 10 is denoted as B) | C (A compound having a KD ratio of 0.1 or more and less than 3 is denoted as C) | 
2.2 nM | CCCO[C@@H]1C[C@H]2C(=O)NC3(CC(C)(C)C3)C(=O)N(C)[C@@H](C3CCCC3)C(=O)N(C)[C@H](C(=O)N3CCCC3)CC(=O)N(C)[C@H]3CCCCc4ccc(cc4)C[C@@H](C(=O)N(C)CC(=O)N[C@@H](CCc4ccc(C(F)(F)F)c(OC)c4)C(=O)N2C1)N1CC/C=C\C[C@@H](C1=O)N(C)C(=O)CN(C)C(=O)[C@H]([C@@H](C)CC)NC3=O [PP3094] | B (a compound having 3 or more and less than 10 is denoted as B) | A (a compound having 10 or more and less than 20 is denoted as A) | 
29.5 nM | CC[C@H](C)[C@@H]1NC(=O)[C@H](CC(C)C)N(C)C(=O)C[C@@H](C(=O)N2CCOCC2)N(C)C(=O)[C@H](C2CCCC2)N(C)C(=O)C2(CCCC2)NC(=O)[C@@H]2CCCN2C(=O)[C@H](CCc2ccc(C(F)(F)F)c(Cl)c2)NC(=O)CN(C)C(=O)[C@H](Cc2ccc(C(F)(F)F)cc2)N(CC(C)C)C(=O)CN(C)C(=O)CN(C)C1=O [PP0121] ([NMeL]I[Sar][Sar][X24][Sar][hPhe(3-Cl-4-CF3)]P[Ac5c][NMeGly(cPent)][NMeD]-Morpholide; lactam N-11) | C (A compound having a KD ratio of 0.1 or more and less than 3 is denoted as C) | C (A compound having a KD ratio of 0.1 or more and less than 3 is denoted as C) | 

Structure (SMILES) | IC50 [2] | HRAS /KRAS [1, 4] | NRAS /KRAS [3, 5] | further results
CCCC[C@@H]1NC(=O)[C@H](CCc2ccc(C(F)(F)F)c(Cl)c2)NC(=O)CN(C)C(=O)[C@H](Cc2ccc(C)cc2)N(CC)C(=O)[C@@H]2CCN2C(=O)[C@H](C)N(C)C(=O)[C@H]([C@@H](C)CC)NC(=O)[C@H](CC(C)C)N(C)C(=O)C[C@@H](C(=O)N2CCCCC2)N(C)C(=O)[C@H](CC(C)C)NC(=O)C(C)(C)N(C)C1=O [PP0048] ([NMeL]I[NMeA][Aze][NEtPhe(4-Me)][Sar][hPhe(3-Cl-4-CF3)][Nle][NMeAib]L[NMeD]-Piperidide; lactam N-11) | 464 nM | C (A compound having a KD ratio of 0.1 or more and less than 3 is denoted as C) | C (A compound having a KD ratio of 0.1 or more and less than 3 is denoted as C) | 
